{"source": "ChEMBL document CHEMBL4765377", "about": "“Design, synthesis, and evaluation of amphiphilic sofalcone derivatives as potent Gram-positive antibacterial agents” (Eur J Med Chem, 2020)", "key": {"[1]": {"assay": "Hemolytic activity in rabbit RBC after 60 mins", "type": "ADME, cell-based, Oryctolagus cuniculus, Erythrocyte", "conditions": "rabbit red blood cells (erythrocytes)"}, "[2]": {"tested_on": "Escherichia coli", "assay": "Antibacterial activity against Escherichia coli ATCC 25922 assessed as reduction in bacterial growth after 24 hrs by CLSI based broth micro dilution method", "type": "functional"}, "[3]": {"tested_on": "Staphylococcus aureus", "assay": "Antibacterial activity against methicillin-resistant Staphylococcus aureus NCTC10442 assessed as reduction in bacterial growth after 24 hrs by CLSI based broth micro dilution method", "type": "functional"}, "[4]": {"tested_on": "Staphylococcus aureus", "assay": "Antibacterial activity against Staphylococcus aureus ATCC 29213 assessed as reduction in bacterial growth after 24 hrs by CLSI based broth micro dilution method", "type": "functional"}, "[5]": {"tested_on": "Staphylococcus aureus", "assay": "Antibacterial activity against methicillin-resistant Staphylococcus aureus N315 assessed as reduction in bacterial growth after 24 hrs by CLSI based broth micro dilution method", "type": "functional"}}}
{"smiles": "CC(C)=CCOc1ccc(/C=C/C(=O)c2ccc(OCC=C(C)C)cc2OCC(=O)O)cc1", "note": "[SOFALCONE]", "values": [{"measurement": "HC50 at 1 h", "setting": "[1]", "value": "> 200", "unit": "µg/mL"}, {"measurement": "MIC", "setting": "[2]", "value": "> 50", "unit": "µg/mL"}, {"measurement": "MIC", "setting": "[3]", "value": "> 50", "unit": "µg/mL"}, {"measurement": "MIC", "setting": "[4]", "value": "> 50", "unit": "µg/mL"}, {"measurement": "MIC", "setting": "[5]", "value": 50, "unit": "µg/mL"}]}
{"smiles": "COC(=O)[C@H](CCCNC(=N)N)NC(=O)[C@H](CCCNC(=N)N)NC(=O)COc1cc(OCC=C(C)C)ccc1C(=O)/C=C/c1ccc(OCC=C(C)C)cc1", "values": [{"measurement": "HC50 at 1 h", "setting": "[1]", "value": 120, "unit": "µg/mL"}, {"measurement": "MIC", "setting": "[2]", "value": 12.5, "unit": "µg/mL"}, {"measurement": "MIC", "setting": "[3]", "value": 3.13, "unit": "µg/mL"}, {"measurement": "MIC", "setting": "[4]", "value": 3.13, "unit": "µg/mL"}, {"measurement": "MIC", "setting": "[5]", "value": 3.13, "unit": "µg/mL"}]}
{"smiles": "CCN(CC)CCCNC(=O)COc1cc(OCC=C(C)C)ccc1C(=O)/C=C/c1ccc(OCC=C(C)C)cc1", "values": [{"measurement": "HC50 at 1 h", "setting": "[1]", "value": 65.7, "unit": "µg/mL"}, {"measurement": "MIC", "setting": "[2]", "value": "> 50", "unit": "µg/mL"}, {"measurement": "MIC", "setting": "[3]", "value": 6.25, "unit": "µg/mL"}, {"measurement": "MIC", "setting": "[4]", "value": 6.25, "unit": "µg/mL"}]}
{"smiles": "CC(C)=CCOc1ccc(/C=C/C(=O)c2ccc(OCC=C(C)C)cc2OCC(=O)NCCCN2CCCC2)cc1", "values": [{"measurement": "HC50 at 1 h", "setting": "[1]", "value": 53.4, "unit": "µg/mL"}, {"measurement": "MIC", "setting": "[2]", "value": "> 50", "unit": "µg/mL"}, {"measurement": "MIC", "setting": "[3]", "value": 6.25, "unit": "µg/mL"}, {"measurement": "MIC", "setting": "[4]", "value": 6.25, "unit": "µg/mL"}, {"measurement": "MIC", "setting": "[5]", "value": 3.13, "unit": "µg/mL"}]}
{"smiles": "CC(C)=CCOc1ccc(/C=C/C(=O)c2ccc(OCC=C(C)C)cc2OCC(=O)N[C@@H](CCCNC(=N)N)C(N)=O)cc1", "values": [{"measurement": "HC50 at 1 h", "setting": "[1]", "value": 78.7, "unit": "µg/mL"}, {"measurement": "MIC", "setting": "[2]", "value": 12.5, "unit": "µg/mL"}, {"measurement": "MIC", "setting": "[3]", "value": 3.13, "unit": "µg/mL"}, {"measurement": "MIC", "setting": "[4]", "value": 3.13, "unit": "µg/mL"}, {"measurement": "MIC", "setting": "[5]", "value": 1.56, "unit": "µg/mL"}]}
{"smiles": "CC(C)=CCOc1ccc(/C=C/C(=O)c2ccc(OCC=C(C)C)cc2OCC(=O)NCCCN)cc1", "values": [{"measurement": "HC50 at 1 h", "setting": "[1]", "value": 47, "unit": "µg/mL"}, {"measurement": "MIC", "setting": "[2]", "value": 50, "unit": "µg/mL"}, {"measurement": "MIC", "setting": "[3]", "value": 3.13, "unit": "µg/mL"}, {"measurement": "MIC", "setting": "[4]", "value": 3.13, "unit": "µg/mL"}, {"measurement": "MIC", "setting": "[5]", "value": 1.56, "unit": "µg/mL"}]}
{"smiles": "CC(C)=CCOc1ccc(/C=C/C(=O)c2ccc(OCC=C(C)C)cc2OCC(=O)NCCCN(C)C)cc1", "values": [{"measurement": "HC50 at 1 h", "setting": "[1]", "value": 78.2, "unit": "µg/mL"}, {"measurement": "MIC", "setting": "[2]", "value": "> 50", "unit": "µg/mL"}, {"measurement": "MIC", "setting": "[3]", "value": 12.5, "unit": "µg/mL"}, {"measurement": "MIC", "setting": "[4]", "value": 12.5, "unit": "µg/mL"}, {"measurement": "MIC", "setting": "[5]", "value": 12.5, "unit": "µg/mL"}]}
{"smiles": "CC(C)=CCOc1ccc(/C=C/C(=O)c2ccc(OCC=C(C)C)cc2OCC(=O)N[C@@H](CCCNC(=N)N)C(=O)NCCCN)cc1", "values": [{"measurement": "HC50 at 1 h", "setting": "[1]", "value": 277, "unit": "µg/mL"}, {"measurement": "MIC", "setting": "[2]", "value": 6.25, "unit": "µg/mL"}]}
{"smiles": "COC(=O)[C@H](CCCNC(=N)N)NC(=O)COc1cc(OCC=C(C)C)ccc1C(=O)/C=C/c1ccc(OCC=C(C)C)cc1", "values": [{"measurement": "HC50 at 1 h", "setting": "[1]", "value": 70, "unit": "µg/mL"}, {"measurement": "MIC", "setting": "[2]", "value": 50, "unit": "µg/mL"}, {"measurement": "MIC", "setting": "[3]", "value": 1.56, "unit": "µg/mL"}, {"measurement": "MIC", "setting": "[4]", "value": 1.56, "unit": "µg/mL"}, {"measurement": "MIC", "setting": "[5]", "value": 1.56, "unit": "µg/mL"}]}
{"smiles": "CCCNC(=O)COc1cc(OCC=C(C)C)ccc1C(=O)/C=C/c1ccc(OCC=C(C)C)cc1", "values": [{"measurement": "HC50 at 1 h", "setting": "[1]", "value": "> 200", "unit": "µg/mL"}, {"measurement": "MIC", "setting": "[2]", "value": "> 100", "unit": "µg/mL"}, {"measurement": "MIC", "setting": "[3]", "value": "> 50", "unit": "µg/mL"}, {"measurement": "MIC", "setting": "[4]", "value": "> 50", "unit": "µg/mL"}, {"measurement": "MIC", "setting": "[5]", "value": "> 50", "unit": "µg/mL"}]}
{"smiles": "CCCCN(CCCC)CCCNC(=O)COc1cc(OCC=C(C)C)ccc1C(=O)/C=C/c1ccc(OCC=C(C)C)cc1", "values": [{"measurement": "HC50 at 1 h", "setting": "[1]", "value": "> 200", "unit": "µg/mL"}, {"measurement": "MIC", "setting": "[2]", "value": "> 50", "unit": "µg/mL"}, {"measurement": "MIC", "setting": "[3]", "value": 6.25, "unit": "µg/mL"}, {"measurement": "MIC", "setting": "[4]", "value": 12.5, "unit": "µg/mL"}, {"measurement": "MIC", "setting": "[5]", "value": 6.25, "unit": "µg/mL"}]}
{"smiles": "CC(C)=CCOc1ccc(/C=C/C(=O)c2ccc(OCC=C(C)C)cc2OCC(=O)NCCCN2CCN(C)CC2)cc1", "values": [{"measurement": "HC50 at 1 h", "setting": "[1]", "value": 36.5, "unit": "µg/mL"}, {"measurement": "MIC", "setting": "[2]", "value": "> 100", "unit": "µg/mL"}, {"measurement": "MIC", "setting": "[3]", "value": 6.25, "unit": "µg/mL"}, {"measurement": "MIC", "setting": "[4]", "value": 6.25, "unit": "µg/mL"}, {"measurement": "MIC", "setting": "[5]", "value": 6.25, "unit": "µg/mL"}]}
{"smiles": "CC(C)=CCOc1ccc(/C=C/C(=O)c2ccc(OCC=C(C)C)cc2OCC(=O)NCCCNC(=N)N)cc1", "values": [{"measurement": "HC50 at 1 h", "setting": "[1]", "value": 56.5, "unit": "µg/mL"}, {"measurement": "MIC", "setting": "[2]", "value": 25, "unit": "µg/mL"}, {"measurement": "MIC", "setting": "[3]", "value": 1.56, "unit": "µg/mL"}, {"measurement": "MIC", "setting": "[4]", "value": 1.56, "unit": "µg/mL"}, {"measurement": "MIC", "setting": "[5]", "value": 1.56, "unit": "µg/mL"}]}
{"smiles": "CC(C)=CCOc1ccc(/C=C/C(=O)c2ccc(OCC=C(C)C)cc2OCC(=O)N[C@@H](CCCNC(=N)N)C(=O)NCCCN(C)C)cc1", "values": [{"measurement": "HC50 at 1 h", "setting": "[1]", "value": 181, "unit": "µg/mL"}, {"measurement": "MIC", "setting": "[2]", "value": 25, "unit": "µg/mL"}]}
{"smiles": "COC(=O)[C@H](Cc1c[nH]cn1)NC(=O)COc1cc(OCC=C(C)C)ccc1C(=O)/C=C/c1ccc(OCC=C(C)C)cc1", "values": [{"measurement": "HC50 at 1 h", "setting": "[1]", "value": "> 200", "unit": "µg/mL"}, {"measurement": "MIC", "setting": "[2]", "value": "> 50", "unit": "µg/mL"}, {"measurement": "MIC", "setting": "[4]", "value": "> 50", "unit": "µg/mL"}]}
{"smiles": "O=C(N[C@H](CO)[C@H](O)c1ccc([N+](=O)[O-])cc1)C(Cl)Cl", "note": "[CHLORAMPHENICOL]", "values": [{"measurement": "MIC", "setting": "[2]", "value": 3.13, "unit": "µg/mL"}]}
